In brackets after ≈: the same amount, converted by molar mass. Residues, ends and D or L forms follow the SMILES beside them. No end group written: not given here.

The results in this text go back to paper PMC10632401, “Cell-free biosynthesis combined with deep learning accelerates de novo-development of antimicrobial peptides” (Nature Communications, 2023).

Data set [1] is described as follows: in vitro. The following applies: human.
The subject of data set [2] is E. coli MG1655. The following applies: MG1655, 20 h.
Data set [3] deals with K. pneumoniae DSM 30104. The following applies: DSM 30104, 20 h.
In data set [4] the test system is A. baumannii (isolate from the human abdominal wall). The following applies: 20 h.
The subject of data set [5] is B. subtilis PY79. The following applies: PY79, 20 h.
For data set [6], the system named is P. aeruginosa DSM 1117. The following applies: DSM 1117, 20 h.
For data set [7], the system named is E. faecium (isolate from the gut of the cow). The following applies: 20 h.

In the case of “MNTTSNMIHRAVQQKRISFRAAKLTVLFLFKRRLLRRLLRHHEN-NH2 [AMP #27]”, the CC50 at 24 h in data set [1] is 75.7 µM. Moreover, the “E. coli MIC” value in data set [2] came out at 12.5 µM. Besides, in data set [3], the “MIC K. pneumoniae” value was found to be 6.3 µM. For the same molecule, the “MIC A. baumannii” value in data set [4] came to 2.4 µM. Further, the “B. subtilis MIC” value in data set [5] came out at 0.4 µM. Besides, in data set [6], the “MIC P. aeruginosa” value was found to be 12.5 µM. For the same molecule, the “MIC E. faecium” value in data set [7] worked out at 1.6 µM.

“MNNRGPLGRRFKARRKWKKFVAGKMKKKRKRFKGFKKKGGFTPFVKKFV-NH2 [AMP #3]” came in with a CC50 at 24 h in data set [1] of 68 µM. Moreover, in data set [2], the “E. coli MIC” value is 12.5 µM. Besides, the “MIC A. baumannii” value in data set [4] is 6.3 µM. Besides, the “B. subtilis MIC” value in data set [5] is 0.8 µM. Moreover, the “MIC E. faecium” value in data set [7] was found to be 1.6 µM.

In data set [1], `CC[C@H](C)[C@H](NC(=O)[C@H](CO)NC(=O)[C@H](CO)NC(=O)[C@H](CO)NC(=O)[C@H](CCCNC(=N)N)NC(=O)[C@@H](NC(=O)[C@H](CO)NC(=O)[C@@H](N)CCSC)[C@@H](C)O)C(=O)N[C@@H](CCCNC(=N)N)C(=O)N[C@@H](CCCNC(=N)N)C(=O)N[C@@H](CC(C)C)C(=O)N[C@H](C(=O)N[C@@H](CCC(=O)O)C(=O)N[C@@H](C)C(=O)N[C@H](C(=O)N[C@@H](CCCNC(=N)N)C(=O)N[C@H](C(=O)N[C@@H](CCCNC(=N)N)C(=O)N[C@@H](Cc1ccccc1)C(=O)N[C@@H](CCCNC(=N)N)C(=O)N[C@@H](C)C(=O)N[C@@H](C)C(=O)N[C@@H](CC(C)C)C(=O)N[C@@H](CCCNC(=N)N)C(=O)N[C@H](C(=O)N[C@H](C(=O)N[C@@H](CC(C)C)C(=O)N[C@@H](Cc1ccccc1)C(=O)N[C@@H](Cc1ccccc1)C(=O)N[C@@H](C)C(=O)N[C@@H](CC(C)C)C(=O)N[C@@H](CCCNC(=N)N)C(=O)N[C@H](C(=O)N[C@H](C(=O)N[C@@H](CCCCN)C(=O)N[C@@H](CCCNC(=N)N)C(=O)N[C@@H](CCCNC(=N)N)C(=O)N1CCC[C@H]1C(=O)N[C@@H](CCCNC(=N)N)C(=O)N[C@@H](CCCNC(=N)N)C(N)=O)[C@@H](C)O)[C@@H](C)O)C(C)C)[C@@H](C)O)[C@@H](C)O)C(C)C)C(C)C` [AMP #23] (H-MSTRSSSIRRLVEAVRTRFRAALRTVLFFALRTTKRRPRR-NH2) had a CC50 of 79.1 µM. The “E. coli MIC” value in data set [2] is on record as 20.8 µM. Besides, in data set [5], the “B. subtilis MIC” value amounted to 1.6 µM.

In turn, “MAIRIIGRLARVRARVVARVRSRLLADDPPEDLLRVARRRKGRRWLFLS-NH2 [AMP #24]” displayed a CC50 at 24 h in data set [1] of 91.7 µM. In addition, the “E. coli MIC” value in data set [2] amounted to 25.0 µM. In data set [5], the “B. subtilis MIC” value is 1.6 µM. In addition, in data set [7], the “MIC E. faecium” value is 6.3 µM.

In data set [1], “MKAKKWFESLFKTFFKKGKGIYPKSSFEKEKKTDKKKKFGGWVWFKK-NH2 [AMP #16]” returned a CC50 at 24 h of 39.3 µM. In data set [2], the “E. coli MIC” value was 6.3 µM. Further, the “MIC K. pneumoniae” value in data set [3] was determined as 2.4 µM. For the same molecule, the “MIC A. baumannii” value in data set [4] came out at 1.6 µM. The “B. subtilis MIC” value in data set [5] was found to be 0.8 µM. Moreover, the “MIC P. aeruginosa” value in data set [6] was found to be 12.5 µM. Moreover, the “MIC E. faecium” value in data set [7] was found to be 1.6 µM.

In the case of `CC[C@H](C)[C@H](NC(=O)[C@H](CCCNC(=N)N)NC(=O)[C@H](CCCNC(=N)N)NC(=O)[C@@H](NC(=O)[C@H](C)NC(=O)[C@H](CCC(=O)O)NC(=O)[C@H](CCCCN)NC(=O)[C@H](CCCNC(=N)N)NC(=O)[C@H](CO)NC(=O)[C@H](CCCNC(=N)N)NC(=O)[C@H](CC(C)C)NC(=O)[C@@H](NC(=O)[C@H](CC(N)=O)NC(=O)[C@H](CCCNC(=N)N)NC(=O)[C@@H](NC(=O)[C@H](CCCCN)NC(=O)[C@H](CCSC)NC(=O)[C@@H](N)CCSC)[C@@H](C)CC)[C@@H](C)O)C(C)C)C(=O)N[C@@H](Cc1ccccc1)C(=O)N[C@@H](CO)C(=O)N[C@@H](CC(C)C)C(=O)N[C@@H](CCCNC(=N)N)C(=O)N[C@@H](CCCNC(=N)N)C(=O)N[C@@H](CCCNC(=N)N)C(=O)N[C@@H](CO)C(=O)N[C@H](C(=O)N[C@@H](Cc1ccccc1)C(=O)N[C@H](C(=O)N[C@@H](CCC(=O)O)C(=O)N[C@@H](CCSC)C(=O)N[C@@H](C)C(=O)N[C@@H](CCCNC(=N)N)C(=O)N[C@@H](C)C(=O)N[C@@H](Cc1ccccc1)C(=O)N[C@@H](CCCNC(=N)N)C(=O)N[C@@H](CCCNC(=N)N)C(=O)N[C@@H](Cc1ccccc1)C(=O)N[C@@H](CCCCN)C(=O)N[C@@H](C)C(=O)N[C@@H](CCCNC(=N)N)C(N)=O)[C@@H](C)O)C(C)C` [AMP #28] (H-MMKIRNTLRSRKEAVRRIFSLRRRSVFTEMARAFRRFKAR-NH2), the CC50 at 24 h in data set [1] was 145 µM. In data set [2], the “E. coli MIC” value is 25.0 µM. The “MIC K. pneumoniae” value in data set [3] is 12.5 µM (≈ 62.9 µg/mL). Besides, in data set [4], the “MIC A. baumannii” value was 1.6 µM (≈ 8.05 µg/mL). In addition, the “B. subtilis MIC” value in data set [5] amounted to 0.4 µM. For the same molecule, in data set [6], the “MIC P. aeruginosa” value was 25.0 µM (≈ 126 µg/mL). The “MIC E. faecium” value in data set [7] amounted to 3.1 µM (≈ 15.6 µg/mL).

In data set [1], “MKLRRRLRTRMVALLVLGVLFLLMLFFIIFLRRMLMRRFRA-NH2 [AMP #26]” had a CC50 of more than 250 µM. For the same molecule, in data set [2], the “E. coli MIC” value was found to be 100.0 µM. The “B. subtilis MIC” value in data set [5] was 37.5 µM.

In the case of “MKKKKKGILKQNNKKKKYTLFNRMVVFLFLGFIMIIFVQKYKKVIYHK-NH2 [AMP #29]”, in data set [1], the CC50 at 24 h is more than 250 µM. For the same molecule, in data set [2], the “E. coli MIC” value worked out at 12.5 µM. Further, the “B. subtilis MIC” value in data set [5] turned out to be 6.3 µM.

Molecule “MLFGSRAKKYGKEAKQEKSFQYPKSSFVACKKKWKRSKHFFKTFKKKVS-NH2 [AMP #1]” returned a CC50 at 24 h in data set [1] of 113 µM. Besides, the “E. coli MIC” value in data set [2] was more than 100 µM. Moreover, the “B. subtilis MIC” value in data set [5] is 0.8 µM.

In the case of “H-MWFDRKKFFWPGVCLFLLFFPKRFYKKGPEKVFSFRKKYKFARKCKCKL-NH2 (cysteines drawn unpaired) [AMP #12]”, the “MIC K. pneumoniae” value in data set [3] is 25.0 µM. Moreover, the “MIC P. aeruginosa” value in data set [6] turned out to be 25.0 µM. The “MIC E. faecium” value in data set [7] came to 12.5 µM.

Take “MWIKWKKPRKWGRRLKKKEKEELGDYIYLYCKVYRLFGFLPYFISKKTA-NH2 [AMP #17]”: in data set [1], the CC50 at 24 h came out at 134 µM. Besides, in data set [2], the “E. coli MIC” value worked out at 12.5 µM. Moreover, the “MIC A. baumannii” value in data set [4] was found to be 6.3 µM. Further, the “B. subtilis MIC” value in data set [5] came out at 6.3 µM. Further, the “MIC E. faecium” value in data set [7] is 6.3 µM.

For the molecule “MGWWFPPKTGNGAGKAFKKAAAAKWGGLFLKAAWFANKGEWGGGFPKGY-NH2 [AMP #9]”, the CC50 at 24 h in data set [1] is 146 µM. In data set [2], the “E. coli MIC” value came to 25.0 µM. For the same molecule, the “MIC K. pneumoniae” value in data set [3] came out at 25.0 µM. In data set [5], the “B. subtilis MIC” value came out at 3.1 µM. For the same molecule, the “MIC E. faecium” value in data set [7] is 6.3 µM.

As for “MRNFFKKTRLKYKGKKELIKKSRAFGLKTKKRSGFFFPRALKYEEEFY-NH2 [AMP #7]”, the CC50 at 24 h in data set [1] came to 133 µM. Moreover, the “E. coli MIC” value in data set [2] is listed as more than 100 µM. Further, in data set [5], the “B. subtilis MIC” value came out at 1.6 µM.
